The values that follow come from ChEMBL document CHEMBL1152438, “Design, synthesis, and structure-activity relationships of aminopyridine N-oxides, a novel scaffold for the potent and selective inhibition of p38 mitogen activated protein kinase” (J Med Chem, 2009).

Molecules are shown by their SMILES. Values after ≈ are worked out from the molar mass of the structure shown.

In general, solubility refers to the dissolved amount per volume that the medium holds. Low values mean a poorly soluble substance, high ones a readily soluble substance. As a reminder, the bioavailability is the share of a dose that reaches the circulation, judged against a reference dose that is usually intravenous. The AUC(0-t) is the area under the concentration-time curve up to a stated or last time point. As usually defined, the clearance is a measure of how efficiently the substance is removed, as volume per time. For orientation: half-life means the time needed for the level to fall by half in the phase considered. One may read the Tmax as the time at which the peak concentration occurs. The term Cmax denotes the maximum level reached in the sampled fluid or tissue.

Series [1] can be described thus: Solubility at pH 7.4. The series is classed as physicochemical. Conditions: buffer.
A short description of series [2]: Solubility at pH 9.0. Conditions: buffer. The series is classed as physicochemical.
Series [3] can be described thus: Solubility at pH 0.1. The series is classed as physicochemical. The note with it: buffer.
Series [4] can be described thus: Volume of distribution at steady state in rat at 0.5 mg/kg, iv. The format is ADME, organism-based. Also noted: dose 0.5 mg/kg, route intravenous. The note with it: in vivo, read-out: Vdss.
A short description of series [5]: Oral bioavailability in rat at 10 mg/kg. The series is classed as ADME, organism-based. The note with it: in vivo.
Series [6] in a line: AUC (0 to 6 hrs) in rat at 10 mg/kg, po. The format is ADME, organism-based. On the set-up: time < 6 hr, dose 10 mg/kg, route oral. The note with it: plasma.
Series [7] can be described thus: Clearance in rat at 0.5 mg/kg, iv. The series is classed as ADME, organism-based. Also noted: dose 0.5 mg/kg, route intravenous. Conditions: in vivo.
The nature of series [8]: Half life in rat at 0.5 mg/kg, iv. The format is ADME, organism-based. Also noted: dose 0.5 mg/kg, route intravenous. Conditions: in vivo.
The nature of series [9]: Tmax in rat at 10 mg/kg, po. The format is ADME, organism-based. Also noted: dose 10 mg/kg, route oral. Conditions: in vivo.
A short description of series [10]: Cmax in rat at 10 mg/kg, po. The note with it: in vivo. The series is classed as ADME, organism-based. Also noted: dose 10 mg/kg, route oral.
Series [11] is described as follows: Clearance in rat at 1 mg/kg, iv. The format is ADME, organism-based. Also noted: dose 1 mg/kg, route intravenous. The note with it: in vivo.
Series [12] is described as follows: Half life in rat at 1 mg/kg, iv. The format is ADME, organism-based. On the set-up: dose 1 mg/kg, route intravenous. Conditions: in vivo.
Series [13] can be described thus: Volume of distribution at steady state in rat at 1 mg/kg, iv. The format is ADME, organism-based. On the set-up: dose 1 mg/kg, route intravenous. Conditions: in vivo, read-out: Vdss.

Turning to `Nc1c(C(=O)c2ccc(F)cc2F)cc[n+]([O-])c1-c1c(F)cccc1F`, the solubility in series [1] is 0.004 mg/mL (≈ 11 µM); in series [2], 0.002 mg/mL (≈ 5.52 µM).

For the molecule `COCCOc1ccc(-c2c(N)c(C(=O)c3ccc(F)cc3F)cc[n+]2[O-])c(C)c1`, the solubility came out at 0.024 mg/mL (≈ 57.9 µM) in series [3], 0.067 mg/mL (≈ 162 µM) in series [1] and 0.089 mg/mL (≈ 215 µM) in series [2].

As to `Cc1ccccc1-c1c(N)c(C(=O)c2ccc(F)cc2F)cc[n+]1[O-]`, the Vd in [4] turned out to be 2.3 L/kg. Further, the bioavailability in series [5] was 75%. Further, the results for the solubility in [3], in [1] and in [2] were 0.11 mg/mL (≈ 323 µM), 0.063 mg/mL (≈ 185 µM) and 0.074 mg/mL (≈ 217 µM), respectively. This molecule also showed an AUC(0-t) at 6 h in series [6] of 22.2 µM·h. In [7], the clearance came out at 1 L/h/kg. The molecule also showed a half-life in series [8] of 1.6 h. Further, the Tmax in series [9] is 0.75 h. Also, in series [10], the peak level (Cmax) was 4.7 µM.

Take `Cc1cc(O)ccc1-c1c(N)c(C(=O)c2ccc(F)cc2F)cc[n+]1[O-]`: the solubility in series [3] came to 0.044 mg/mL (≈ 123 µM); in series [1] it was 0.037 mg/mL (≈ 104 µM).

Turning to `Cc1cccc(C)c1-c1c(N)c(C(=O)c2ccc(F)cc2F)cc[n+]1[O-]`, the solubility in [3] came to 0.04 mg/mL (≈ 113 µM); in [1], 0.069 mg/mL (≈ 195 µM); in series [2], 0.07 mg/mL (≈ 198 µM).

Take `Nc1c(C(=O)c2ccc(F)cc2F)cc[n+]([O-])c1-c1ccccc1Cl`: the clearance in series [11] was 0.102 L/h/kg. This molecule also displayed a bioavailability in series [5] of 23%. For the same molecule, the values for the solubility in series [3], in series [1] and in [2] were 0.066 mg/mL (≈ 183 µM), 0.059 mg/mL (≈ 164 µM) and 0.039 mg/mL (≈ 108 µM), respectively. For the same molecule, in series [6], the area under the curve AUC(0-t) at 6 h worked out at 54.4 µM·h. This molecule also showed a half-life in series [12] of 14.8 h. Further, the Vd in [13] stood at 1.8 L/kg. The time to peak (Tmax) in [9] worked out at 3.5 h. Also, the maximum concentration (Cmax) in series [10] is 11.9 µM.

With `Cc1cc(OCCN2CCOCC2)ccc1-c1c(N)c(C(=O)c2ccc(F)cc2F)cc[n+]1[O-]`, the solubility in series [3] is greater than 1 mg/mL; in series [1], 0.051 mg/mL (≈ 109 µM).

`Cc1cc(C(=O)O)ccc1-c1c(N)c(C(=O)c2ccc(F)cc2F)cc[n+]1[O-]`: the solubility in [3] is 0.041 mg/mL (≈ 107 µM); in series [1] it was greater than 1 mg/mL; in [2] it was greater than 1 mg/mL.

`COCCNC(=O)c1ccc(-c2c(N)c(C(=O)c3ccc(F)cc3F)cc[n+]2[O-])c(C)c1`: the values for the solubility in series [3], in series [1] and in series [2] were 0.054 mg/mL (≈ 122 µM), 0.046 mg/mL (≈ 104 µM) and 0.049 mg/mL (≈ 111 µM), respectively.
